From patent publication US4885299A, “2-(2,3-dihydro-2-oxo-3-benzofuranyl)acetic acids antihypoxic and nootropic effects having” (ADIR Et Cie, priority 1987, dated 1989)
Where a name gives a salt, the structure may show the parent alone. Read-outs that look alike come from different tables or passages of the source.

Assays:
[1] = system: Acute hypoxia in mice; survival of the brain; assay: Acute hypoxia in mice (hypobaric); brain survival time to final respiratory gasp; type: in vivo, Male CD1 mice (Charles River)
Procedure: (§1) The compounds of the present invention were tested in respect of their capacity to prolong the survival of cerebral tissue during acute hypoxia in mice, or to maintain the level of tissue energy-rich compounds in rats subjected to a fall in the oxygen supply [Pharmacology of Cerebral Ischemia, p. 334-339 (1968) Elsevier Science Publishers B.V., J. Krieglstein ed.]. […] Forsch. Drug. Res. (1986), 36 II No. 9, p. 1314-1320].
The survival of the brain is assessed by measuring the time at which the final respiratory gasp is observed.
The survival time of a treated batch is compared with that of a control batch receiving only the solvent.
The percentage increase in the survival time after the animals are treated with the compounds of the invention is shown in Table II.

[2] = system: brain energy-rich compounds (ATP, ADP, AMP); assay: Acute hypoxia in rats; protection of tissue energy-rich compounds in brain (ATP, energy content); type: in vivo, Male Fischer 344 rats (Charles River); conditions: for % inhibition of the effects of hypoxia, ATP / % inhibition of the effects of hypoxia, EC (tissue energy content): 3% oxygen for 2 minutes; for antihypoxic effect / protection in words: 300 mg/kg
Procedure: as §1
Whereas the control rats breath a gaseous mixture containing 21% of oxygen and 79% of nitrogen, the rats subjected to hypoxia breath a mixture of 3% oxygen and 97% nitrogen for 2 minutes.
At the end of the hypoxic period, the animals are rapidly sacrificed by total immersion in liquid nitrogen. The frozen brain is removed and the energy-rich compounds (ATP, ADP, AMP) are extracted and assayed by the luciferin luminescence method.
The tissue energy content (EC) is calculated according to ATKINSON's formula: [formula]

[3] = Mus musculus, ip, 30 mg/kg I.P., 30 minutes before hypoxia, mice, read-out: Percentage increase in the survival time
[4] = Mus musculus, ip, 100 mg/kg I.P., 30 minutes before hypoxia, mice, read-out: Percentage increase in the survival time
[5] = 100 mg/kg I.P., 30 minutes before hypoxia, mice
[6] = Mus musculus, ip, read-out: Percentage increase in the survival time
[7] = 100 mg/kg I.P., listed as pyritinol

Row | Compound | change in vivo at 30 mg/kg [1, 3] | change in vivo at 100 mg/kg [1, 4] | % inhibition of the effects of hypoxia, ATP ([2]; 100 mg/kg I.P.) | % inhibition of the effects of hypoxia, EC (tissue energy content) ([2]; 100 mg/kg I.P.) | % inhibition of the effects of hypoxia, ATP ([2]; 30 mg/kg I.P.) | % inhibition of the effects of hypoxia, EC (tissue energy content) ([2]; 30 mg/kg I.P.) | Percentage increase in the survival time [1, 5] | % inhibition of the effects of hypoxia, ATP ([2]; 300 mg/kg I.P.) | % inhibition of the effects of hypoxia, EC (tissue energy content) ([2]; 300 mg/kg I.P.) | antihypoxic effect / protection in words [2] | further results
1 | O=C(CC1(c2ccccc2)C(=O)Oc2ccc(Cl)cc21)N1CCN(Cc2ccc3c(c2)OCO3)CC1 (stereo not shown) [Example 16, 2-(5-Chloro-2,3-dihydro-2-oxo-3-phenyl-3-benzofuranyl)-1-[4-(3,4-methylenedioxybenzyl)piperazinyl]-1-oxoethane] | 64% | 100% | 77.5% | 76.3% |  |  |  |  |  |  | Percentage increase in the survival time ([1]; 100 mg/kg I.P., 30 minutes before hypoxia, mice, listed as Ex. 16): +100%
2 | O=C(CC1(c2ccccc2)C(=O)Oc2ccc(F)cc21)N1CCN(Cc2ccc3c(c2)OCO3)CC1 (stereo not shown) [Example 20, 2-(5-Fluoro-2,3-dihydro-2-oxo-3-phenyl-3-benzofuranyl)-1-[4-(3,4-methylenedioxybenzyl)piperazinyl]-1-oxoethane hydrochloride] | 104% | 100% | 70.2% | 71.5% | 56.9% | 61.3% |  |  |  |  | Percentage increase in the survival time ([1]; 100 mg/kg I.P., 30 minutes before hypoxia, mice, listed as Ex. 20, hydrochloride): +100%; change in vivo at 10 mg/kg ([1]; Mus musculus, ip, 10 mg/kg I.P., 30 minutes before hypoxia, mice, read-out: Percentage increase in the survival time): 52%; change in vivo at 300 mg/kg ([1]; Mus musculus, ip, 300 mg/kg I.P., 30 minutes before hypoxia, mice, read-out: Percentage increase in the survival time): 128%
3 | CN(C)CCOC(=O)COc1ccc(Cl)cc1 [Meclofenoxate, meclofenoxate, reference compound] |  |  |  |  |  |  | +22% | 59.7% | 69.6% |  | change in vivo at 30 mg/kg [1, 6]: 4%; change in vivo at 100 mg/kg [1, 6]: 22%; change in vivo at 600 mg/kg [1, 6]: 190%
4 | NC(=O)CN1CCCC1=O [Piracetam, piracetam, reference compound] |  | 11% |  |  |  |  | +11% |  | 1.6% | only very little protection | change in vivo at 1000 mg/kg ([1]; Mus musculus, ip, 1000 mg/kg I.P., 30 minutes before hypoxia, mice, read-out: Percentage increase in the survival time): 25%
5 | Cc1ncc(CSSCc2cnc(C)c(O)c2CO)c(CO)c1O [Pyritinol, pyritinol] | 13% | 27% | 23.3% | 35.2% | 11.1% | 16.6% | +27% | 90.4% | 85.4% | distinct antihypoxic effect | significance of the protection (brain survival time) ([1]; 100 mg/kg, mice): significant; change in vivo at 200 mg/kg ([1]; Mus musculus, ip, 200 mg/kg I.P., 30 minutes before hypoxia, mice, read-out: Percentage increase in the survival time): 77%; antihypoxic effect in words ([2]; 100 mg/kg): only a more modest effect; % inhibition of the effects of hypoxia, ATP [2, 7]: 23%; % inhibition of the effects of hypoxia, EC (tissue energy content) [2, 7]: 35%
